The record followed here is ChEMBL document CHEMBL1201862, “PubChem BioAssay data set” (2004).

SMILES strings stand for the structures.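 Values below derive from 48-hour exposures of cells grown in 96-well plates, with endpoints linearly interpolated between the two concentrations bracketing the appropriate inhibition level. At the GI50, growth is halved.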 Calls of active or inactive are those of the source. Rule as the data show it: active = GI50 up to about 1.1 µM and inactive = higher. Some results are limits rather than exact numbers.

Test systems include CAKI-1; DU-145; EKVX; HL-60; HOP-62; HOP-92; LOX IMVI; M14; NCI-H23; NCI-H460; NCI-H522; OVCAR-3; SF-295; SN12C; SNB-19; SR; SW-620; U-251; UACC-257; MDA-N.
Common to all, as to experiment: growth of human tumour cells (NCI), 48 h

For `Cc1ccc(S(=O)(=O)CC2(Br)CCc3ccccc3C2=O)cc1` (centres undefined), the GI50 in the test with CAKI-1 is 24.5 µM (inactive); with DU-145 it was 74.8 µM (inactive); with EKVX it was 43.1 µM (inactive); in the test on HL-60 it was 17.3 µM (inactive); with HOP-62 it was 39.4 µM (inactive); with HOP-92, 34.4 µM (inactive). For the same compound, the GI50 in the test on LOX IMVI is 32 µM (inactive); in the test with M14, 45.4 µM (inactive); with NCI-H23 it was 33.6 µM (inactive); with NCI-H460 it was > 100 µM (inactive); in the test with NCI-H522, 15.6 µM (inactive); in the test on OVCAR-3, 45.3 µM (inactive). Besides, the GI50 with SF-295 was 77.8 µM (inactive); with SN12C, 30.6 µM (inactive); with SNB-19, 41.9 µM (inactive); in the test with SR, 1.38 µM (inactive); with SW-620 it was 18 µM (inactive); in the test on U-251, 21.4 µM (inactive). Moreover, in the test with UACC-257, the GI50 is 22.3 µM (inactive).

As to `CCOC(=O)c1nc(SC)sc1NC(=O)c1ccc(OC)cc1`, the GI50 was > 100 µM (inactive) with CAKI-1; > 100 µM (inactive) with DU-145; > 100 µM (inactive) with EKVX; > 100 µM (inactive) in the test with HL-60; 34.7 µM (inactive) with HOP-62; > 100 µM (inactive) in the test with HOP-92. Moreover, the GI50 is > 100 µM (inactive) in the test on LOX IMVI; > 100 µM (inactive) in the test on M14; > 100 µM (inactive) in the test with MDA-N; > 100 µM (inactive) in the test on NCI-H23; 35.6 µM (inactive) in the test with NCI-H460; > 100 µM (inactive) with NCI-H522. Moreover, the GI50 is > 100 µM (inactive) in the test with OVCAR-3; > 100 µM (inactive) in the test on SF-295; 37.9 µM (inactive) with SN12C; 75.7 µM (inactive) in the test on SNB-19; 49.1 µM (inactive) in the test with SW-620; 23.9 µM (inactive) with U-251. Besides, in the test on UACC-257, the GI50 is > 100 µM (inactive).

As to `Cc1cc(C)nc(NS(=O)(=O)c2ccc(NN=c3c4ccccc4n(C)c4ccccc34)cc2)n1`, the GI50 in the test on CAKI-1 was 21.5 µM (inactive); in the test on DU-145 it was 37 µM (inactive); in the test on EKVX, 26.4 µM (inactive); in the test on HL-60 it was 28.9 µM (inactive); with HOP-62, 60.5 µM (inactive); in the test on HOP-92 it was 15.6 µM (inactive). Further, the GI50 was 23.7 µM (inactive) in the test on LOX IMVI; 35.5 µM (inactive) in the test on M14; 22.2 µM (inactive) in the test with MDA-N; 25.6 µM (inactive) in the test on NCI-H23; 29.6 µM (inactive) in the test with NCI-H460; 13.8 µM (inactive) in the test with NCI-H522. In addition, the GI50 in the test with OVCAR-3 is 30.2 µM (inactive); in the test on SF-295 it was 44.7 µM (inactive); in the test on SN12C, 42.8 µM (inactive); in the test on SNB-19, 42.3 µM (inactive); with SW-620 it was 26.1 µM (inactive); in the test on U-251, 34.5 µM (inactive). The GI50 in the test on UACC-257 is 39.3 µM (inactive).

On to `Nc1cc(C2CCCc3c2[nH]c2ccccc32)ccc1O` (centres undefined), for which the GI50 with CAKI-1 was 25.2 µM (inactive); with DU-145 it was 26 µM (inactive); in the test on EKVX, 44 µM (inactive); with HL-60, 14.2 µM (inactive); in the test on HOP-62, 74.6 µM (inactive); in the test on HOP-92, 56.8 µM (inactive). The GI50 was 16.4 µM (inactive) in the test on LOX IMVI; 6.19 µM (inactive) in the test with M14; 36.5 µM (inactive) in the test on NCI-H23; > 100 µM (inactive) with NCI-H460; 20.1 µM (inactive) with NCI-H522; 22.3 µM (inactive) in the test on OVCAR-3. Further, the GI50 in the test on SF-295 is 14.4 µM (inactive); with SN12C, 65.2 µM (inactive); in the test on SNB-19 it was > 100 µM (inactive); with SR, 4.48 µM (inactive); in the test on SW-620, 23.6 µM (inactive); in the test with U-251, 48.2 µM (inactive). Also, the GI50 in the test on UACC-257 was 42.4 µM (inactive).

`O=C1N/C(=N/N=C/C(O)C(O)C(O)C(O)CO)N/C1=C\c1c[nH]c2ccccc12` (centres undefined): the GI50 in the test on CAKI-1 is > 100 µM (inactive); with DU-145, > 100 µM (inactive); with EKVX it was 34.6 µM (inactive); with HL-60 it was 48.4 µM (inactive); in the test with HOP-62, > 100 µM (inactive); in the test with HOP-92 it was > 100 µM (inactive). The GI50 in the test with LOX IMVI was > 100 µM (inactive); with M14, > 100 µM (inactive); in the test with MDA-N, > 100 µM (inactive); in the test with NCI-H23, > 100 µM (inactive); with NCI-H460, > 100 µM (inactive); in the test with NCI-H522, 54.1 µM (inactive). Besides, the GI50 is 62.8 µM (inactive) with OVCAR-3; > 100 µM (inactive) in the test on SF-295; > 100 µM (inactive) with SN12C; 38.4 µM (inactive) with SNB-19; > 100 µM (inactive) in the test with SW-620; 69.3 µM (inactive) with U-251. The GI50 in the test with UACC-257 is > 100 µM (inactive).

Turning to `COc1ccc(OC)c2sc(N3C(=O)/C(=C/c4cccc(Oc5ccccc5)c4)N=C3c3ccccc3)nc12`, the GI50 in the test on CAKI-1 was > 100 µM (inactive); with DU-145, > 100 µM (inactive); with EKVX it was > 100 µM (inactive); in the test on HL-60 it was 38 µM (inactive); in the test on HOP-62 it was > 100 µM (inactive); in the test with HOP-92, > 100 µM (inactive). Also, the GI50 in the test with LOX IMVI was 65.3 µM (inactive); in the test with M14, > 100 µM (inactive); with MDA-N, 38 µM (inactive); with NCI-H23 it was > 100 µM (inactive); with NCI-H460, > 100 µM (inactive); in the test with NCI-H522, 53.7 µM (inactive). Besides, the GI50 was > 100 µM (inactive) with OVCAR-3; > 100 µM (inactive) in the test on SF-295; > 100 µM (inactive) in the test with SN12C; > 100 µM (inactive) with SNB-19; 51.1 µM (inactive) in the test with SW-620; 92 µM (inactive) in the test on U-251. The GI50 with UACC-257 is 71.3 µM (inactive).

For the compound `NN/C(=N\S(=O)(=O)c1ccc(-c2ccccn2)s1)Nc1ccc(Cl)cc1`, the GI50 in the test on CAKI-1 is 58.6 µM (inactive); in the test on DU-145, > 100 µM (inactive); in the test on EKVX, 53.6 µM (inactive); in the test on HL-60, > 100 µM (inactive); in the test on HOP-62, 38.9 µM (inactive); in the test on HOP-92 it was 68.5 µM (inactive). In addition, the GI50 with LOX IMVI is > 100 µM (inactive); with M14, > 100 µM (inactive); with MDA-N, > 100 µM (inactive); in the test with NCI-H23 it was > 100 µM (inactive); in the test with NCI-H460 it was > 100 µM (inactive); in the test on NCI-H522, 0.265 µM (active). The GI50 is 73.8 µM (inactive) with OVCAR-3; 52.5 µM (inactive) with SF-295; > 100 µM (inactive) with SN12C; 42.1 µM (inactive) with SNB-19; > 100 µM (inactive) in the test with SW-620; 44.2 µM (inactive) in the test on U-251. In addition, in the test with UACC-257, the GI50 was > 100 µM (inactive).

With `COc1ccc(C(NS(=O)(=O)c2ccc(C)cc2)c2c(C(CBr)OC)c3ccccc3n2S(=O)(=O)c2ccccc2)cc1OC` (centres undefined), the GI50 with CAKI-1 is > 100 µM (inactive); with DU-145 it was > 100 µM (inactive); in the test with EKVX, > 100 µM (inactive); in the test on HL-60, > 100 µM (inactive); in the test with HOP-62 it was > 100 µM (inactive); with HOP-92 it was 85.5 µM (inactive). Also, the GI50 with LOX IMVI, in the test with M14, in the test on MDA-N, with NCI-H23, in the test with NCI-H460 and in the test on NCI-H522 was > 100 µM (inactive) each time. The GI50 in the test with OVCAR-3, in the test with SF-295, in the test on SN12C, with SNB-19, in the test with SW-620 and in the test on U-251 was > 100 µM (inactive) in each case. In addition, the GI50 in the test on UACC-257 is > 100 µM (inactive).

For the compound `Cn1c(=O)c2nc(CCCCC(=O)O)[nH]c2n(C)c1=O`, the GI50 in the test with CAKI-1, in the test on DU-145, in the test on EKVX, in the test with HOP-62, with HOP-92 and in the test on LOX IMVI was > 100 µM (inactive) in each case. Also, the GI50 with M14, in the test on MDA-N, in the test on NCI-H23, in the test with NCI-H460, in the test with NCI-H522 and in the test on OVCAR-3 was > 100 µM (inactive) in each case. In addition, the GI50 in the test with SF-295, in the test on SN12C, in the test with SNB-19, in the test with SW-620, in the test on U-251 and in the test on UACC-257 was > 100 µM (inactive) throughout.

`COc1cccc(-c2c(-c3ccccc3)[nH]c(C)c2C(=O)ONC(=O)c2ccccc2)c1`: the GI50 in the test with CAKI-1 is 3.18 µM (inactive); in the test with DU-145 it was 2.59 µM (inactive); in the test on EKVX it was 6.78 µM (inactive); in the test with HL-60, 1.93 µM (inactive); in the test on HOP-62, 2.72 µM (inactive); in the test on HOP-92, 1.83 µM (inactive). Further, the GI50 in the test with LOX IMVI was 1.89 µM (inactive); with M14, 5.7 µM (inactive); in the test with NCI-H23, 11.6 µM (inactive); in the test with NCI-H460, 3.19 µM (inactive); in the test with NCI-H522, 3.78 µM (inactive); in the test with OVCAR-3 it was 6.38 µM (inactive). The GI50 with SF-295 is 2.55 µM (inactive); with SN12C, 3.4 µM (inactive); with SNB-19, 7.89 µM (inactive); in the test with SR, 2.07 µM (inactive); with SW-620 it was 13.6 µM (inactive); in the test with U-251, 3.14 µM (inactive). In addition, the GI50 with UACC-257 was 13.5 µM (inactive).
